Experimental data published in patent US4598066A, “Antimycoplasmal agent for animals and method of use for prevention and treatment of mycoplasmosis” (Fujisawa Pharmaceutical Co., Ltd., priority 1982, dated 1986).

Tested on: Mycoplasma gallisepticum 1RF
Experiment: Test 5: Mycoplasma gallisepticum 1RF intranasal infection in chickens, Compound 1 and tylosin alone and combined
Assay type: in vivo, chicken
Conditions: single oral dose 100 mg/kg 1 hr after intranasal infection; 20 days after infection (group C)
Experimental: Mycoplasma: Mycoplasma gallisepticum 1RF supplied from the National Institute of Animal Health, Ibaraki prefecture, Japan was used.
Chickens used: Broiler males (Chunky), purchased as day-old chickens from a commercial flock free of Mycoplasma gallisepticum agglutinins, were maintained under isolation in an electrically heated battery brooder. When birds reached 7 to 8 days of age, they were used for test.
Infection of mycoplasma: Mycoplasma gallisepticum 1RF was cultured in PPLO liquid medium (Difco) for 3 to 4 days at 37° C. until the colour of broth changed from red to yellowish organge. An aliquot of the culture (10^7 -10^8 cfu/ml) was used for infection.
Intranasal infections were produced by dropping 0.05 ml of the culture into the nasal cavity of chickens.
Recovery of mycoplasma: Twenty to 21 days after infection, the chickens were killed and recovery of mycoplasma was examined from the trachea, air-sac, and tibia-metatarsus joints.
Recovered organisms were identified as Mycoplasma gallisepticum after examining glucose fermentation, colonies, and haemadsorption test.
Inhibition(%) of infection: Average recovery percentage of Mycoplasma gallisepticum from trachea, air-sac, and tibia-metatarsus joints was measured infected medicated, and infected non-medicated chickens.
Inhibition(%) was calculated as follows: [formula] […]

SMILES: CC[C@H]1OC(=O)C[C@@H](O)[C@H](C)[C@@H](O[C@@H]2O[C@H](C)[C@@H](O[C@H]3C[C@@](C)(O)[C@@H](O)[C@H](C)O3)[C@H](N(C)C)[C@H]2O)[C@@H](CC=O)C[C@@H](C)C(=O)/C=C/C(C)=C/[C@@H]1CO[C@@H]1O[C@H](C)[C@@H](O)[C@@H](OC)[C@H]1OC [Tylosin, tylosin]
- Inhibition (%) of infection: 17%
